Laboratory results taken from patent publication US20140045873A1, “NOVEL MICROBIOCIDES” (SYNGENTA PARTICIPATIONS AG, priority 2010, published 2014).
Where two headings read alike, the source gives them in different places.

Assays:
[1] = tested on: Botryotinia fuckeliana (Botrytis cinerea); experiment: Botryotinia fuckeliana (Botrytis cinerea) / liquid culture (gray mould); format: cell-based; details: Vogels broth, 24° C., 3-4 days after application, read-out: control of Botryotinia fuckeliana (inhibition of growth, photometric)
Text: Botryotinia Fuckeliana (Botrytis cinerea)/Liquid Culture (Gray Mould): Conidia of the fungus from cryogenic storage were directly mixed into nutrient broth (Vogels broth). […].45

[2] = tested on: Glomerella lagenarium (Colletotrichum lagenarium); experiment: Glomerella lagenarium (Colletotrichum lagenarium) / liquid culture (anthracnose); format: cell-based; details: Colletotrichum orbiculare; 200 ppm, liquid culture, PDB, 24° C., 3-4 days after application; read-out: control of Glomerella lagenarium (inhibition of growth, photometric)
[3] = tested on: Mycosphaerella arachidis (Cercospora arachidicola); experiment: Mycosphaerella arachidis (Cercospora arachidicola) / liquid culture (early leaf spot); format: cell-based; details: 200 ppm, liquid culture, PDB, 24° C., 4-5 days after application, read-out: control of Mycosphaerella arachidis (inhibition of growth, photometric)
[4] = tested on: Mycosphaerella graminicola (Septoria tritici); experiment: Mycosphaerella graminicola (Septoria tritici) / liquid culture (Septoria blotch); format: cell-based; details: Zymoseptoria tritici; 200 ppm, liquid culture, PDB, 24° C., 4-5 days after application; read-out: control of Mycosphaerella graminicola (inhibition of growth, photometric)
Gaeumannomyces graminis = Gaeumannomyces graminis / liquid culture (take-all of cereals); format: cell-based; details: 200 ppm, liquid culture, PDB, 24° C., 4-5 days after application, read-out: control of Gaeumannomyces graminis (inhibition of growth, photometric)
[5] = tested on: Monographella nivalis (Microdochium nivale); experiment: Monographella nivalis (Microdochium nivale) / liquid culture (foot rot cereals); format: cell-based; details: PDB, 24° C., 4-5 days after application, read-out: control of Monographella nivalis (inhibition of growth, photometric)
Pyrenophora teres = details: in Hordeum vulgare, foliar, read-out: control of Pyrenophora teres (disease control compared to untreated)
[6] = tested on: Puccinia recondita f. sp. tritici; details: in Triticum aestivum, foliar, read-out: control of Puccinia recondita f. sp. tritici (percent disease control compared to untreated)
[7] = tested on: Puccinia recondita f. sp. tritici; details: in Triticum aestivum, foliar, read-out: control of Puccinia recondita f. sp. tritici (percent disease control compared to untreated); remark: listed apart in the source
[8] = tested on: Thanatephorus cucumeris (Rhizoctonia solani); details: read-out: control of Thanatephorus cucumeris (inhibition of growth, photometric)
[9] = tested on: Phaeosphaeria nodorum (Septoria nodorum); details: Parastagonospora nodorum, in Triticum aestivum, foliar, read-out: control of Phaeosphaeria nodorum (percent disease control compared to untreated)
Pythium ultimum = Pythium ultimum / liquid culture (seedling damping off); format: cell-based; details: Globisporangium ultimum, potato dextrose broth, 24° C., 2-3 days after application, read-out: control of Pythium ultimum (inhibition of growth, photometric)
Alternaria solani = Alternaria solani / tomato / leaf disc (early blight); format: in vivo; details: foliar, tomato leaf disks cv. Baby, inoculated 2 days after application, assessed 5-7 days after application, read-out: control of Alternaria solani (percent disease control compared to untreated)
Method: The inoculated leaf disks were incubated at 23° C./21° C. […].44

C/C(=N\OCCCc1cccc(-c2cc(OCc3ccccc3)cc(C)n2)n1)c1cccc(C)n1 [P.15]
≥ 80%: inhibition at 200 ppm [1] | inhibition at 200 ppm [2] | inhibition at 200 ppm [3] | inhibition at 200 ppm [4] | inhibition at 200 ppm (Gaeumannomyces graminis) | inhibition at 200 ppm [5] | pest or weed control at 200 ppm (Pyrenophora teres) | pest or weed control at 200 ppm [6] | pest or weed control at 200 ppm [7] | inhibition at 200 ppm [8] | pest or weed control at 200 ppm [9]

C/C(=N\OCCCc1ccnc(-c2cccc(C)n2)n1)c1cccc(C)n1 [P.45, E-1-(6-methyl-2-pyridyl)-N-[3-[2-(6-methyl-2-pyridyl)pyrimidin-4-yl]propoxy]ethanimine]
≥ 80%: inhibition at 200 ppm [1] | inhibition at 200 ppm [2] | inhibition at 200 ppm [3] | inhibition at 200 ppm [4] | inhibition at 200 ppm [5] | inhibition at 200 ppm (Pythium ultimum) | pest or weed control at 200 ppm (Pyrenophora teres) | pest or weed control at 200 ppm [6] | pest or weed control at 200 ppm [7] | inhibition at 200 ppm [8] | pest or weed control at 200 ppm [9]

COc1cc(C)nc(-c2ccc(OC)c(CCCO/N=C(\C)c3cccc(C)n3)n2)c1 [P.43]
≥ 80%: inhibition at 200 ppm [1] | inhibition at 200 ppm [2] | inhibition at 200 ppm [3] | inhibition at 200 ppm [4] | inhibition at 200 ppm (Gaeumannomyces graminis) | inhibition at 200 ppm [5] | inhibition at 200 ppm (Pythium ultimum) | pest or weed control at 200 ppm (Pyrenophora teres) | pest or weed control at 200 ppm [6] | pest or weed control at 200 ppm [7] | inhibition at 200 ppm [8] | pest or weed control at 200 ppm [9]

CCc1ccc(C)c(-c2cccc(CCCO/N=C(\C)c3cccc(C)n3)n2)n1 [P.42]
≥ 80%: inhibition at 200 ppm [1] | inhibition at 200 ppm [2] | inhibition at 200 ppm [3] | inhibition at 200 ppm [4] | inhibition at 200 ppm (Gaeumannomyces graminis) | inhibition at 200 ppm [5] | pest or weed control at 200 ppm (Alternaria solani) | pest or weed control at 200 ppm (Pyrenophora teres) | pest or weed control at 200 ppm [6] | pest or weed control at 200 ppm [7] | inhibition at 200 ppm [8] | pest or weed control at 200 ppm [9]

C/C(=N\OCCCc1cccc(-c2cccc(C)n2)n1)c1cccc(C)n1 [P.21]
≥ 80%: inhibition at 200 ppm [1] | inhibition at 200 ppm [2] | inhibition at 200 ppm [3] | inhibition at 200 ppm [4] | inhibition at 200 ppm (Gaeumannomyces graminis) | pest or weed control at 200 ppm (Alternaria solani) | inhibition at 200 ppm (Pythium ultimum) | pest or weed control at 200 ppm (Pyrenophora teres) | pest or weed control at 200 ppm [6] | pest or weed control at 200 ppm [7] | pest or weed control at 200 ppm [9]

CON=C(C)c1ccc(-c2cccc(CCCO/N=C(\C)c3cccc(C)n3)n2)nc1C [P.22]
≥ 80%: inhibition at 200 ppm [1] | inhibition at 200 ppm [2] | inhibition at 200 ppm [3] | inhibition at 200 ppm [4] | inhibition at 200 ppm (Gaeumannomyces graminis) | pest or weed control at 200 ppm (Alternaria solani) | pest or weed control at 200 ppm (Pyrenophora teres) | pest or weed control at 200 ppm [6] | pest or weed control at 200 ppm [7] | pest or weed control at 200 ppm [9]

C/C(=N\OCCCc1cccc(-c2cc(C)cc(C)n2)n1)c1cccc(C)n1 [P.19]
≥ 80%: inhibition at 200 ppm [3] | inhibition at 200 ppm [4] | inhibition at 200 ppm (Gaeumannomyces graminis) | inhibition at 200 ppm (Pythium ultimum) | pest or weed control at 200 ppm (Pyrenophora teres) | pest or weed control at 200 ppm [6] | pest or weed control at 200 ppm [7] | pest or weed control at 200 ppm [9]

COc1cc(C)nc(-c2cccc(CCCO/N=C(\C)c3cc(C)cc(C)n3)n2)c1 [P.13]
≥ 80%: inhibition at 200 ppm [1] | inhibition at 200 ppm [2] | inhibition at 200 ppm [3] | inhibition at 200 ppm [4] | inhibition at 200 ppm (Gaeumannomyces graminis) | inhibition at 200 ppm [5] | pest or weed control at 200 ppm (Alternaria solani) | inhibition at 200 ppm (Pythium ultimum) | pest or weed control at 200 ppm (Pyrenophora teres) | pest or weed control at 200 ppm [6] | pest or weed control at 200 ppm [7] | pest or weed control at 200 ppm [9]

C/C(=N\OCCCc1cccc(-c2nc(C)cc(C)n2)n1)c1cccc(C)n1 [P.05]
≥ 80%: inhibition at 200 ppm [2] | inhibition at 200 ppm [3] | inhibition at 200 ppm [4] | inhibition at 200 ppm (Gaeumannomyces graminis) | inhibition at 200 ppm (Pythium ultimum) | pest or weed control at 200 ppm (Pyrenophora teres) | pest or weed control at 200 ppm [6] | pest or weed control at 200 ppm [7] | inhibition at 200 ppm [8] | pest or weed control at 200 ppm [9]

CCOc1cc(C)nc(-c2cccc(CCCO/N=C(\C)c3cccc(C)n3)n2)c1 [P.12]
≥ 80%: inhibition at 200 ppm [1] | inhibition at 200 ppm [2] | inhibition at 200 ppm [3] | inhibition at 200 ppm [5] | pest or weed control at 200 ppm (Alternaria solani) | inhibition at 200 ppm (Pythium ultimum) | pest or weed control at 200 ppm (Pyrenophora teres) | pest or weed control at 200 ppm [6] | pest or weed control at 200 ppm [7] | inhibition at 200 ppm [8] | pest or weed control at 200 ppm [9]

C=CCOc1cc(C)nc(-c2cccc(CCCO/N=C(\C)c3cc(C)cc(C)n3)n2)c1 [P.30]
≥ 80%: inhibition at 200 ppm [1] | inhibition at 200 ppm [2] | inhibition at 200 ppm [3] | inhibition at 200 ppm [4] | inhibition at 200 ppm (Gaeumannomyces graminis) | inhibition at 200 ppm [5] | pest or weed control at 200 ppm (Pyrenophora teres) | pest or weed control at 200 ppm [6] | pest or weed control at 200 ppm [7] | inhibition at 200 ppm [8] | pest or weed control at 200 ppm [9]

C/C(=N\OCCCc1cccc(-c2cc(Br)cc(C)n2)n1)c1cccc(C)n1 [P.18]
≥ 80%: inhibition at 200 ppm [2] | inhibition at 200 ppm [3] | inhibition at 200 ppm [4] | inhibition at 200 ppm (Gaeumannomyces graminis) | inhibition at 200 ppm [5] | inhibition at 200 ppm (Pythium ultimum) | pest or weed control at 200 ppm (Pyrenophora teres) | pest or weed control at 200 ppm [6] | pest or weed control at 200 ppm [7] | pest or weed control at 200 ppm [9]

C#CCOc1cc(C)nc(-c2cccc(CCCO/N=C(\C)c3cc(C)cc(C)n3)n2)c1 [P.29]
≥ 80%: inhibition at 200 ppm [1] | inhibition at 200 ppm [2] | inhibition at 200 ppm [3] | inhibition at 200 ppm [4] | inhibition at 200 ppm (Gaeumannomyces graminis) | inhibition at 200 ppm [5] | pest or weed control at 200 ppm (Alternaria solani) | pest or weed control at 200 ppm (Pyrenophora teres) | pest or weed control at 200 ppm [6] | pest or weed control at 200 ppm [7] | inhibition at 200 ppm [8] | pest or weed control at 200 ppm [9]

CCCOc1cc(C)nc(-c2cccc(CCCO/N=C(\C)c3cc(C)cc(C)n3)n2)c1 [P.31]
≥ 80%: inhibition at 200 ppm [1] | inhibition at 200 ppm [2] | inhibition at 200 ppm [3] | inhibition at 200 ppm [4] | inhibition at 200 ppm (Gaeumannomyces graminis) | inhibition at 200 ppm [5] | pest or weed control at 200 ppm (Pyrenophora teres) | pest or weed control at 200 ppm [6] | pest or weed control at 200 ppm [7] | inhibition at 200 ppm [8] | pest or weed control at 200 ppm [9]

C=CCOc1cc(C)nc(-c2cccc(CCCO/N=C(\C)c3cccc(C)n3)n2)c1 [P.25]
≥ 80%: inhibition at 200 ppm [1] | inhibition at 200 ppm [2] | inhibition at 200 ppm [3] | inhibition at 200 ppm [4] | inhibition at 200 ppm (Gaeumannomyces graminis) | inhibition at 200 ppm [5] | inhibition at 200 ppm (Pythium ultimum) | pest or weed control at 200 ppm (Pyrenophora teres) | pest or weed control at 200 ppm [6] | pest or weed control at 200 ppm [7] | inhibition at 200 ppm [8] | pest or weed control at 200 ppm [9]

C/C(=N\OCCCc1cccc(-c2cc(OC(C)C)cc(C)n2)n1)c1cccc(C)n1 [P.27]
≥ 80%: inhibition at 200 ppm [1] | inhibition at 200 ppm [2] | inhibition at 200 ppm [3] | inhibition at 200 ppm [4] | inhibition at 200 ppm [5] | pest or weed control at 200 ppm (Alternaria solani) | inhibition at 200 ppm (Pythium ultimum) | pest or weed control at 200 ppm (Pyrenophora teres) | pest or weed control at 200 ppm [6] | pest or weed control at 200 ppm [7] | inhibition at 200 ppm [8] | pest or weed control at 200 ppm [9]

CCOc1cc(C)nc(-c2cccc(CCCO/N=C(\C)c3cc(C)cc(C)n3)n2)c1 [P.28]
≥ 80%: inhibition at 200 ppm [1] | inhibition at 200 ppm [2] | inhibition at 200 ppm [3] | inhibition at 200 ppm [4] | inhibition at 200 ppm (Gaeumannomyces graminis) | inhibition at 200 ppm [5] | inhibition at 200 ppm (Pythium ultimum) | pest or weed control at 200 ppm (Pyrenophora teres) | pest or weed control at 200 ppm [6] | pest or weed control at 200 ppm [7] | inhibition at 200 ppm [8] | pest or weed control at 200 ppm [9]
